Measurements published in ChEMBL document CHEMBL1127295, “Development of a model for the delta opioid receptor pharmacophore. 2. Conformationally restricted Phe3 replacements in the cyclic delta receptor selective tetrapeptide Tyr-c[D-Cys-Phe-D-Pen]OH (JOM-13)” (J Med Chem, 1994).

Columns and labels:
[1] = molecular target: T1, Delta-type opioid receptor (Mus musculus, UniProt P32300); assay: Agonist activity was assessed in mouse vas deferens (MVD) smooth muscle bioassay; type: functional, tissue-based, Muscle tissue
Mu-type opioid receptor [2] = molecular target: T2, Mu-type opioid receptor (Cavia porcellus, UniProt P97266); assay: Agonist activity was assessed in an guinea pig ileum (GPI) smooth muscle bioassay; type: functional, tissue-based
Mu-type opioid receptor [3] = molecular target: T2, Mu-type opioid receptor; assay: Binding affinity against mu opioid receptor using [3H]DAMGO in guinea pig ileum; type: tissue-based
[4] = molecular target: T1, Delta-type opioid receptor; assay: Binding affinity for delta opioid receptor using [3H]DPDPE from mouse vas deferens

T1 sequence (P32300 whole entry): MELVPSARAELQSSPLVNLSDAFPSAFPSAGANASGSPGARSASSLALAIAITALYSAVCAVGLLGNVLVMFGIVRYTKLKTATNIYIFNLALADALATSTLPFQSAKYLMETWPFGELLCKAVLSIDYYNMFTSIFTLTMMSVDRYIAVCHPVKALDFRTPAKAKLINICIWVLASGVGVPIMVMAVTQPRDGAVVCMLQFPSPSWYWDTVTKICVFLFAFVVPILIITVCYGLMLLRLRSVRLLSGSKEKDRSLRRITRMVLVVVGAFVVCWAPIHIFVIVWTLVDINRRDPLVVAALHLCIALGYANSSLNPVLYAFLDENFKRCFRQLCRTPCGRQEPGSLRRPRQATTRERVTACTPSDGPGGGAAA
T2 sequence (P97266 whole entry): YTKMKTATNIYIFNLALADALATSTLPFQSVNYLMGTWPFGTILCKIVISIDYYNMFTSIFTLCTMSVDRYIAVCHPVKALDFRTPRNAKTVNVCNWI

With C[C@@H](c1ccccc1)[C@H]1NC(=O)[C@@H](NC(=O)[C@@H](N)Cc2ccc(O)cc2)CSSC(C)(C)[C@@H](C(=O)O)NC1=O as the compound, how does the IC50 [1] read?
Its IC50 is 1110 nM.

And the IC50 (Mu-type opioid receptor [2])?
The IC50 was over 30000 nM.

And the Ki (Mu-type opioid receptor [3])?
Its Ki is over 10000 nM.

What about the Ki [4] of the same compound?
Its Ki is 237 nM.

With CC1(C)SSC[C@H](NC(=O)[C@@H](N)Cc2ccc(O)cc2)C(=O)N[C@H](Cc2ccccc2)C(=O)N[C@@H]1C(=O)O (stereo in doubt; 6) as the compound, how does the Ki [4] read?
The Ki was 70 nM.

How did the IC50 [1] turn out when CC1(C)SSC[C@H](NC(=O)[C@@H](N)Cc2ccc(O)cc2)C(=O)N[C@H](Cc2ccccc2)C(=O)N[C@@H]1C(=O)O (stereo in doubt; 5) was run?
Its IC50 is 4.13 nM.

And the Ki [4]?
The Ki was 1.52 nM.

Which IC50 [1] does the source give for CC1(C)SSC[C@H](NC(=O)[C@@H](N)Cc2ccc(O)cc2)C(=O)N[C@H](Cc2ccccc2)C(=O)N[C@@H]1C(=O)O (stereo in doubt; 3) here?
The IC50 was 51.8 nM.

And the Ki [4]?
The Ki was 12.3 nM.

Which IC50 [1] does the source give for CC1(C)SSC[C@H](NC(=O)[C@@H](N)Cc2ccc(O)cc2)C(=O)N[C@H](Cc2ccccc2)C(=O)N[C@@H]1C(=O)O (stereo in doubt; 4) here?
Its IC50 is 9.72 nM.

And the Ki [4]?
The Ki was 4.8 nM.
